Experimental data published in patent US20080058213A1, “Benzoxazole Compounds” (priority 2004, published 2008).

Legend:
[1] = tested on: barnyard grass (Echinochloa crusgalli); assay: Weed control test for paddy field (Test Example 1): barnyard grass; type: in vivo; conditions: paddy pots, treated at 1.0 leaf stage of barnyard grass, examined after 3 weeks
Method in brief: (§1)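 Paddy-soil pots flooded to 3 cm, seeded with weeds and transplanted with 2.0-leaf rice. Wettable-powder formulations diluted in water and applied dropwise at a prescribed active-ingredient dose per are at barnyard grass 1.0-leaf stage. After 3 weeks in a 25 °C glasshouse, growth inhibition versus untreated control scored 0–5 (0: <20%; 5: 100%).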

[2] = tested on: Monochoria (Monochoria vaginalis); assay: Weed control test for paddy field (Test Example 1): Monochoria; type: in vivo; conditions: paddy pots, treated at 1.0 leaf stage of barnyard grass, examined after 3 weeks
Method in brief: as §1

[3] = tested on: Japanese bulrush (Scirpus juncoides); assay: Weed control test for paddy field (Test Example 1): Japanese bulrush; type: in vivo; conditions: paddy pots, treated at 1.0 leaf stage of barnyard grass, examined after 3 weeks
Method in brief: as §1

[4] = tested on: flat sedge (Cyperus serotinus); assay: Weed control test for paddy field (Test Example 1): flat sedge; type: in vivo; conditions: paddy pots, treated at 1.0 leaf stage of barnyard grass, examined after 3 weeks
Method in brief: as §1

[5] = tested on: rice plant; assay: Weed control test for paddy field (Test Example 1): phytotoxicity to rice plant; type: in vivo; conditions: paddy pots, treated at 1.0 leaf stage of barnyard grass, examined after 3 weeks
Method in brief: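 Rice transplanted at 2.0 leaf stage into flooded paddy soil pots (3 cm water) sown with weeds. Wettable powder applied dropwise at a prescribed active ingredient dose per are at 1.0 leaf stage of barnyard grass. Kept 3 weeks in glasshouse at 25 °C. Phytotoxicity scored 0 (normal) to 5 (killed) against untreated control.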

[6] = tested on: southern crabgrass (Digitaria ciliaris); assay: Soil treatment test for upland field (Test Example 2): southern crabgrass; type: in vivo; conditions: soil treatment before germination, examined after 3 weeks
Method in brief: (§2)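 Scores run on a six-grade scale from 0 (under 20% inhibition) to 5 (complete), relative to untreated pots and assessed 3 weeks after treatment in a 25° C. glasshouse. Compound was applied pre-emergence as a diluted wettable powder sprayed over freshly seeded, soil-covered pots at 15 liters water per are.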

[7] = tested on: common lambsquaters (Chenopodium album); assay: Soil treatment test for upland field (Test Example 2): common lambsquaters; type: in vivo; conditions: soil treatment before germination, examined after 3 weeks
Method in brief: as §2

[8] = tested on: slender amaranth (Amaranthus viridis); assay: Soil treatment test for upland field (Test Example 2): slender amaranth; type: in vivo; conditions: soil treatment before germination, examined after 3 weeks
Method in brief: as §2

[9] = tested on: common purslane (Portulaca oleracea); assay: Soil treatment test for upland field (Test Example 2): common purslane; type: in vivo; conditions: soil treatment before germination, examined after 3 weeks
Method in brief: as §2

[10] = tested on: velvetleaf (Abutilon theophrasti); assay: Soil treatment test for upland field (Test Example 2): velvetleaf; type: in vivo; conditions: soil treatment before germination, examined after 3 weeks
Method in brief: as §2

[11] = tested on: wheat; assay: Soil treatment test for upland field (Test Example 2): phytotoxicity to wheat; type: in vivo; conditions: soil treatment before germination, examined after 3 weeks; also: key: 0: normal growth; 1: little damaged; 2: low damaged; 3: medium damaged; 4: serious damaged; 5: complete killed
[12] = tested on: corn; assay: Soil treatment test for upland field (Test Example 2): phytotoxicity to corn; type: in vivo; conditions: soil treatment before germination, examined after 3 weeks; also: key: 0: normal growth; 1: little damaged; 2: low damaged; 3: medium damaged; 4: serious damaged; 5: complete killed
[13] = tested on: soybean; assay: Soil treatment test for upland field (Test Example 2): phytotoxicity to soybean; type: in vivo; conditions: soil treatment before germination, examined after 3 weeks; also: key: 0: normal growth; 1: little damaged; 2: low damaged; 3: medium damaged; 4: serious damaged; 5: complete killed
[14] = tested on: southern crabgrass; assay: Foliage treatment test for upland field (Test Example 3): southern crabgrass; type: in vivo; conditions: foliage treatment at 1.0-2.0 leaf stage of southern crabgrass, examined after 3 weeks
Method in brief: (§3)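 Scored after 3 weeks at 25° C on a six-grade scale from 0 (under 20% inhibition) to 5 (100%) relative to untreated plants. Foliar spray of diluted wettable powder at 15 L/are, applied when southern crabgrass reached the 1.0-2.0 leaf stage.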

[15] = tested on: common lambsquaters; assay: Foliage treatment test for upland field (Test Example 3): common lambsquaters; type: in vivo; conditions: foliage treatment at 1.0-2.0 leaf stage of southern crabgrass, examined after 3 weeks
Method in brief: as §3

[16] = tested on: slender amaranth; assay: Foliage treatment test for upland field (Test Example 3): slender amaranth; type: in vivo; conditions: foliage treatment at 1.0-2.0 leaf stage of southern crabgrass, examined after 3 weeks
Method in brief: as §3

[17] = tested on: common purslane; assay: Foliage treatment test for upland field (Test Example 3): common purslane; type: in vivo; conditions: foliage treatment at 1.0-2.0 leaf stage of southern crabgrass, examined after 3 weeks
Method in brief: as §3

[18] = tested on: velvetleaf; assay: Foliage treatment test for upland field (Test Example 3): velvetleaf; type: in vivo; conditions: foliage treatment at 1.0-2.0 leaf stage of southern crabgrass, examined after 3 weeks
Method in brief: as §3

[19] = tested on: wheat; assay: Foliage treatment test for upland field (Test Example 3): phytotoxicity to wheat; type: in vivo; conditions: foliage treatment at 1.0-2.0 leaf stage of southern crabgrass, examined after 3 weeks; also: key: 0: normal growth; 1: little damaged; 2: low damaged; 3: medium damaged; 4: serious damaged; 5: complete killed
Method in brief: (§4)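 Crops sown in compost-mixed soil pots, kept in a glasshouse at 25° C. average. Effect scored after 3 weeks versus untreated control on a 0–5 scale (0 normal growth, 5 complete kill).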

[20] = tested on: corn; assay: Foliage treatment test for upland field (Test Example 3): phytotoxicity to corn; type: in vivo; conditions: foliage treatment at 1.0-2.0 leaf stage of southern crabgrass, examined after 3 weeks
Method in brief: as §4

[21] = tested on: soybean; assay: Foliage treatment test for upland field (Test Example 3): phytotoxicity to soybean; type: in vivo; conditions: foliage treatment at 1.0-2.0 leaf stage of southern crabgrass, examined after 3 weeks
Method in brief: as §4

FC(F)(F)COC/C(=C\c1cccc(C(F)(F)F)c1)c1nc2cc(C(F)(F)F)ccc2o1 [Compound 85, (E)-2-(5-trifluoromethylbenzoxazol-2-yl)-1-(3-trifluoromethylphenyl)-3-(2,2,2-trifluoroethoxy)propene]
Herbicidal Effect Barnyard grass ([1]; dose 2.5 g ai/a): 4 (80%-less than 100%) | Herbicidal Effect Barnyard grass ([1]; dose 5 g ai/a): 5 (100%) | Herbicidal Effect Monochoria vaginalis ([2]; dose 2.5 g ai/a): 5 (100%) | Herbicidal Effect Monochoria vaginalis ([2]; dose 5 g ai/a): 5 (100%) | Herbicidal Effect Japanese bulrush ([3]; dose 2.5 g ai/a): 4 (80%-less than 100%) | Herbicidal Effect Japanese bulrush ([3]; dose 5 g ai/a): 5 (100%) | Herbicidal Effect Flat sedge ([4]; dose 2.5 g ai/a): 3 (60%-less than 80%) | Herbicidal Effect Flat sedge ([4]; dose 5 g ai/a): 4 (80%-less than 100%) | Phytotoxicity Rice plant ([5]; dose 2.5 g ai/a): 0 | Phytotoxicity Rice plant ([5]; dose 5 g ai/a): 0 | Herbicidal Effect southern crabgrass ([6]; dose 2.5 g ai/a): 5 (100%) | Herbicidal Effect southern crabgrass ([6]; dose 5 g ai/a): 5 (100%) | Herbicidal Effect common lambsquaters ([7]; dose 2.5 g ai/a): 5 (100%) | Herbicidal Effect common lambsquaters ([7]; dose 5 g ai/a): 5 (100%) | Herbicidal Effect slender amaranth ([8]; dose 2.5 g ai/a): 5 (100%) | Herbicidal Effect slender amaranth ([8]; dose 5 g ai/a): 5 (100%) | Herbicidal Effect common purslane ([9]; dose 2.5 g ai/a): 5 (100%) | Herbicidal Effect common purslane ([9]; dose 5 g ai/a): 5 (100%) | Herbicidal Effect velvetleaf ([10]; dose 2.5 g ai/a): 5 (100%) | Herbicidal Effect velvetleaf ([10]; dose 5 g ai/a): 5 (100%) | Phytotoxicity wheat ([11]; dose 2.5 g ai/a): 0 | Phytotoxicity wheat ([11]; dose 5 g ai/a): 0 | Phytotoxicity corn ([12]; dose 2.5 g ai/a): 0 | Phytotoxicity corn ([12]; dose 5 g ai/a): 0 | Phytotoxicity soybean ([13]; dose 2.5 g ai/a): 0 | Phytotoxicity soybean ([13]; dose 5 g ai/a): 0 | Herbicidal Effect southern crabgrass ([14]; dose 2.5 g ai/a): 5 (100%) | Herbicidal Effect southern crabgrass ([14]; dose 5 g ai/a): 5 (100%) | Herbicidal Effect Common lambsquatters ([15]; dose 2.5 g ai/a): 5 (100%) | Herbicidal Effect Common lambsquatters ([15]; dose 5 g ai/a): 5 (100%) | Herbicidal Effect slender amaranth ([16]; dose 2.5 g ai/a): 5 (100%) | Herbicidal Effect slender amaranth ([16]; dose 5 g ai/a): 5 (100%) | Herbicidal Effect common purslane ([17]; dose 2.5 g ai/a): 5 (100%) | Herbicidal Effect common purslane ([17]; dose 5 g ai/a): 5 (100%) | Herbicidal Effect velvetleaf ([18]; dose 2.5 g ai/a): 5 (100%) | Herbicidal Effect velvetleaf ([18]; dose 5 g ai/a): 5 (100%) | Phytotoxicity wheat ([19]; dose 2.5 g ai/a): 1 | Phytotoxicity wheat ([19]; dose 5 g ai/a): 1 | Phytotoxicity corn ([20]; dose 2.5 g ai/a): 1 | Phytotoxicity corn ([20]; dose 5 g ai/a): 1 | Phytotoxicity soybean ([21]; dose 2.5 g ai/a): 2 | Phytotoxicity soybean ([21]; dose 5 g ai/a): 2 | melting point: 86 to 89 °C

COCC(=Cc1ccc(F)c(C(F)(F)F)c1)c1nc2cc(F)c(F)cc2o1 [Compound 126]
Herbicidal Effect Barnyard grass ([1]; dose 2.5 g ai/a): 5 (100%) | Herbicidal Effect Barnyard grass ([1]; dose 5 g ai/a): 5 (100%) | Herbicidal Effect Monochoria vaginalis ([2]; dose 2.5 g ai/a): 5 (100%) | Herbicidal Effect Monochoria vaginalis ([2]; dose 5 g ai/a): 5 (100%) | Herbicidal Effect Japanese bulrush ([3]; dose 2.5 g ai/a): 3 (60%-less than 80%) | Herbicidal Effect Japanese bulrush ([3]; dose 5 g ai/a): 4 (80%-less than 100%) | Herbicidal Effect Flat sedge ([4]; dose 2.5 g ai/a): 2 (40%-less than 60%) | Herbicidal Effect Flat sedge ([4]; dose 5 g ai/a): 3 (60%-less than 80%) | Phytotoxicity Rice plant ([5]; dose 2.5 g ai/a): 0 | Phytotoxicity Rice plant ([5]; dose 5 g ai/a): 0 | Herbicidal Effect southern crabgrass ([6]; dose 2.5 g ai/a): 4 (80%-less than 100%) | Herbicidal Effect southern crabgrass ([6]; dose 5 g ai/a): 5 (100%) | Herbicidal Effect common lambsquaters ([7]; dose 2.5 g ai/a): 5 (100%) | Herbicidal Effect common lambsquaters ([7]; dose 5 g ai/a): 5 (100%) | Herbicidal Effect slender amaranth ([8]; dose 2.5 g ai/a): 5 (100%) | Herbicidal Effect slender amaranth ([8]; dose 5 g ai/a): 5 (100%) | Herbicidal Effect common purslane ([9]; dose 2.5 g ai/a): 5 (100%) | Herbicidal Effect common purslane ([9]; dose 5 g ai/a): 5 (100%) | Herbicidal Effect velvetleaf ([10]; dose 2.5 g ai/a): 3 (60%-less than 80%) | Herbicidal Effect velvetleaf ([10]; dose 5 g ai/a): 4 (80%-less than 100%) | Phytotoxicity wheat ([11]; dose 2.5 g ai/a): 0 | Phytotoxicity wheat ([11]; dose 5 g ai/a): 0 | Phytotoxicity corn ([12]; dose 2.5 g ai/a): 0 | Phytotoxicity corn ([12]; dose 5 g ai/a): 0 | Phytotoxicity soybean ([13]; dose 2.5 g ai/a): 0 | Phytotoxicity soybean ([13]; dose 5 g ai/a): 0 | Herbicidal Effect southern crabgrass ([14]; dose 2.5 g ai/a): 4 (80%-less than 100%) | Herbicidal Effect southern crabgrass ([14]; dose 5 g ai/a): 5 (100%) | Herbicidal Effect Common lambsquatters ([15]; dose 2.5 g ai/a): 5 (100%) | Herbicidal Effect Common lambsquatters ([15]; dose 5 g ai/a): 5 (100%) | Herbicidal Effect slender amaranth ([16]; dose 2.5 g ai/a): 5 (100%) | Herbicidal Effect slender amaranth ([16]; dose 5 g ai/a): 5 (100%) | Herbicidal Effect common purslane ([17]; dose 2.5 g ai/a): 5 (100%) | Herbicidal Effect common purslane ([17]; dose 5 g ai/a): 5 (100%) | Herbicidal Effect velvetleaf ([18]; dose 2.5 g ai/a): 3 (60%-less than 80%) | Herbicidal Effect velvetleaf ([18]; dose 5 g ai/a): 4 (80%-less than 100%) | Phytotoxicity wheat ([19]; dose 2.5 g ai/a): 0 | Phytotoxicity wheat ([19]; dose 5 g ai/a): 1 | Phytotoxicity corn ([20]; dose 2.5 g ai/a): 0 | Phytotoxicity corn ([20]; dose 5 g ai/a): 1 | Phytotoxicity soybean ([21]; dose 2.5 g ai/a): 1 | Phytotoxicity soybean ([21]; dose 5 g ai/a): 1
